The structures appear in SMILES notation.

The data set in a line: gradient 5% acetonitrile 3 min, to 50% in 2 min, to 85% in 15 min, held 3 min, 100 µL/min. The note with it: column: Zorbax Extend-C18 2.1 x 50 mm; eluents: water / acetonitrile, 0.1% formic acid. In short, it runs like this: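 Data were gathered over 3 months by HPLC coupled to a quadrupole time-of-flight mass spectrometer, operated in positive and negative ionization mode. Mixtures of ~100 pure standards ran on a Zorbax Extend-C18 column (2.1 × 50 mm, 1.8 μm) at 100 μL/min, with water and acetonitrile each containing 0.1% formic acid and dead and dwell volumes of 40 μL and 900 μL. Retention time was read from adduct peaks picked by computer and checked manually.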
For `Cc1cccc(Nc2nc(C(=O)NCCC3=CCCCC3)nc3ccccc23)c1`, the RP-LC retention time was found to be 995 s.

`O=S(=O)(c1cccn2c(SCc3ccccc3)nnc12)N1CCN(c2ccc(F)cc2)CC1` had an RP-LC retention time of 958 s. The result for `Cc1ccc2c(C(=O)N3CCN(Cc4ccccc4)CC3)cc(NC(=O)C(C)C)cc2n1` reads 571 s; that for `Cc1nnc(-c2ccc3ccn(CC(=O)NCC(C)c4ccccc4)c3c2)o1` (stereo not drawn), 793 s. The result for `COc1ccc(CNC(=O)NCCc2cn(C)c3ncccc23)cc1` reads 649 s; that for `CN1CCN(CCNC(=O)C2c3ccccc3C(=O)N(C3CCCC3)C2c2cccs2)CC1` (stereo not drawn), 633 s; that for `O=C(Nc1ccc(OCc2nnc(-c3ccccc3)o2)cc1)C1CCCC1`, 885 s. The result for `CCC1CCCCN1CCCNC(=O)C1CCCN(c2nccnc2Sc2ccccc2)C1` (stereo not drawn) reads 714 s. `O=C(Cn1ccc2ccn(Cc3cccnc3)c2c1=O)N1CCOCC1` registered an RP-LC retention time of 569 s. The molecule `CCOc1ccc(-c2nc(C3CC(=O)N(c4ccc(C)cc4)C3)no2)cc1OCC` (stereo not drawn) registered an RP-LC retention time of 1090 s. The result for `Cc1nc(-c2csc(S(=O)(=O)N3CCC(C(=O)N4CC=C(c5ccccc5)CC4)CC3)c2)no1` reads 1000 s. With `Cc1ccc(-c2csc(Cc3nc(-c4ccc5c(c4)OCO5)no3)n2)cc1C`, the RP-LC retention time turned out to be 1280 s. In the case of `COc1cccc(CNC(=O)CN2C(=O)C3CCCCN3c3ccc(S(=O)(=O)N(C)C)cc32)c1` (stereo not drawn) it was 887 s. Turning to `CCc1cc(C(=O)N2CCN(CC)CC2)nc2cc(-c3cccs3)nn12`, the RP-LC retention time was 646 s. In the case of `Cc1cccc(C)c1NC(=O)N(C)CC1CCOC1` (stereo not drawn) it was 666 s. Molecule `O=C1CC(CNS(=O)(=O)c2cccc(C(F)(F)F)c2)CN1c1ccc(Cl)cc1` (stereo not drawn) yielded an RP-LC retention time of 893 s. `CCc1ccc(S(=O)(=O)N2CCC(c3noc(-c4ccccc4C)n3)CC2)cc1` showed an RP-LC retention time of 1150 s.

For the molecule `COc1ccccc1NC(=O)CC(=O)Nc1ccc2nc3n(c(=O)c2c1)CCCCC3`, the RP-LC retention time is 742 s. `COc1ccc(S(=O)(=O)N2CCC3(CC2)c2nccn2CCN3C)cc1OC` registered an RP-LC retention time of 610 s.

In turn, `CCn1c(=O)c2ccccc2n(Cc2nc(-c3ccccc3Cl)no2)c1=O` registered an RP-LC retention time of 1000 s. `CS(=O)(=O)c1ccc(SCC(=O)N2CCOCC2)c([N+](=O)[O-])c1`: the RP-LC retention time amounted to 636 s. In turn, `O=C(CC1CCN(C(=O)Nc2ccc3c(c2)OCO3)CC1)N1CCCCC1` registered an RP-LC retention time of 712 s. Molecule `COc1ccccc1C(=O)NC1CCN(c2cc(-c3ccccc3)[nH]n2)C1` (stereo not drawn) registered an RP-LC retention time of 718 s. On to `Cc1ccc(F)c2c(=O)c3c([nH]c12)CCN(CC(=O)Nc1ccc2c(c1)OCO2)C3`, for which the RP-LC retention time is 615 s.

On to `Cc1ccc(C)c(S(=O)(=O)N2CCc3nc(-c4ccccc4)ncc3C2)c1`, for which the RP-LC retention time came to 1170 s. The result for `O=C(c1cccs1)N1CC(C(=O)N2CCN(c3ncccn3)CC2)C1` reads 604 s; that for `CC(C)NC(=O)c1ccc(OCC2CCN(C(=O)c3ccc(F)c(F)c3)CC2)cc1`, 873 s; that for `COc1cc(=O)oc(/C=C/C=C/C=C/C(C)=C/C2(C)OC(C)C(C)(O)C2O)c1C` (stereo not drawn), 846 s. The result for `CCN1c2ccccc2C(=O)NC12CCN(C(=O)Nc1cc(Cl)ccc1OC)CC2` reads 787 s; that for `CCN1CCN(C(=O)Cn2c3ccccc3c3cnn(C)c(=O)c32)CC1`, 580 s. Molecule `Cn1ncc2c(N3CCSCC3)nc(C(=O)NCc3cccs3)nc21` had an RP-LC retention time of 778 s.

In the case of `CCOC(=O)c1sc(NC(=O)C(C)Oc2ccc(OC)cc2)nc1C` (stereo not drawn), the RP-LC retention time worked out at 996 s.

With `COc1cccc(Cn2c(C(=O)N3CCC(C(=O)NCC4CCCCC4)CC3)cc3ccsc32)c1`, the RP-LC retention time is 1090 s. The result for `O=C(c1cccs1)N1CCCC(c2ccnc(Nc3cccc(F)c3)n2)C1` (stereo not drawn) reads 957 s. `Cn1c(N2CCC(C(=O)N3CCN(c4cccc(C(F)(F)F)c4)CC3)CC2)cc(=O)n(C)c1=O`: the RP-LC retention time was 814 s. For `CCn1cc(S(=O)(=O)Nc2cccc(C)c2C)c2cccnc21`, the RP-LC retention time was 868 s. In turn, `Cc1cc(N2CCC(NC(=O)Nc3cccc(Cl)c3F)C2=O)ccc1F` (stereo not drawn) returned an RP-LC retention time of 945 s. The result for `O=C(NCCc1ccccc1)C(=O)NCC1OCCc2ccccc21` (stereo not drawn) reads 946 s. In the case of `CCn1cc(S(=O)(=O)NCc2cccc(Cl)c2)c2cccnc21` it was 862 s; in that of `COc1ccc(C2(C(=O)N3C[C@H]4C[C@H](C3)[C@H]3CCCC(=O)N3C4)CC2)cc1`, 679 s. `Cn1c(=O)c(N2CCC(NC(=O)Nc3ccccc3Cl)CC2)nc2ccccc21`: the RP-LC retention time amounted to 904 s. The molecule `COc1cccc(-n2c(N3CCCC(C(=O)NCCC4=CCCCC4)C3)nc3ccsc3c2=O)c1` (stereo not drawn) returned an RP-LC retention time of 1020 s.

`Cc1cc(=O)oc2cc(OS(C)(=O)=O)ccc12`: the RP-LC retention time was 782 s. In the case of `COc1cccc2oc(-c3ccccc3)cc(=O)c12` it was 900 s. In the case of `CCNC(=O)C1CCN(C2=NS(=O)(=O)C(c3ccc(C(C)C)cc3)=C2C)CC1` it was 812 s; in that of `Cc1cc(C)c(NS(=O)(=O)c2cc(-c3nc(C)c(C)s3)sc2C)c(C)c1`, 1260 s; in that of `Cc1cc(C(=O)Nc2cccc(F)c2)nc2ccnn12`, 889 s. In the case of `O=C(NCCN1CCCCCC1)C1CCN(c2cnn(Cc3ccccc3)c(=O)c2)CC1` it was 614 s; in that of `CCCC(C(=O)OCCN(CC)CC)(c1ccccc1)c1ccccc1`, 920 s; in that of `Cc1ccc(-c2nnc(-c3nn(C)c4c3CN(S(=O)(=O)c3c(C)n[nH]c3C)CC4)o2)cc1`, 782 s. The molecule `Cc1cccc(N2CCN(c3cc(C(=O)O)c4cc(NC(=O)C5CCCC5)ccc4n3)CC2)c1C` displayed an RP-LC retention time of 799 s. `Cc1ccc(Cn2c(=O)c(N3CCN(C(=O)NCC4CCCO4)CC3)nc3ccccc32)cc1` (stereo not drawn) returned an RP-LC retention time of 908 s. Molecule `CCOc1cc(C(=O)N2CCN(c3cc(-c4cccs4)[nH]n3)CC2)cc(OCC)c1OCC` yielded an RP-LC retention time of 907 s. The result for `Cc1ccc(-n2cc3c(N4CCCC(C(=O)NCc5ccc(C(C)C)cc5)C4)ncnc3n2)cc1` (stereo not drawn) reads 836 s; that for `CN(C)S(=O)(=O)c1ccc(-c2nnc(C(=O)NCCCN3CCCC3)o2)cc1`, 593 s.

Consider `CCN(CC)CCNC(=O)C1COc2ccc(OC)cc2C1` (stereo not drawn), for which the RP-LC retention time was determined as 602 s. `CCc1ccc(-n2nc(CO)c(C(=O)NCc3ccc4c(c3)OCO4)n2)cc1`: the RP-LC retention time is 1030 s. In turn, `Cc1ccc(-c2cc3n(n2)CCCN(C(=O)c2ccc(C)s2)C3)cc1` yielded an RP-LC retention time of 948 s.

Values taken from the METLIN SMRT retention time set (Domingo-Almenara et al. 2019).
